For test [1], the target named is T1, CeDcpS (C. elegans decapping scavenger enzyme) (Caenorhabditis elegans, UniProt G5EFS4).
T1 sequence (G5EFS4 1-311): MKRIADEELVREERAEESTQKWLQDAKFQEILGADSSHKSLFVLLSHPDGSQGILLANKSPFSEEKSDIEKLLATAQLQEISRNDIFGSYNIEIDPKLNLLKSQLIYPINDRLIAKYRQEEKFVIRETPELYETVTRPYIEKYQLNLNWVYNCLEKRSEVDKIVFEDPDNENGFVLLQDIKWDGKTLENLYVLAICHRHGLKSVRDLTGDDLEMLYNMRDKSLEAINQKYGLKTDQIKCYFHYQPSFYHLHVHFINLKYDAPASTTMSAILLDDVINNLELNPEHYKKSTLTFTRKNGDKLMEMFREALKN
The test is described as follows: intrinsic Trp fluorescence quenching titration, association constant Kas. In kind it is binding.

Test [2] deals with T2, hDcpS (human decapping scavenger enzyme) (Homo sapiens, UniProt Q96C86). The description is as above. In kind it is binding.
The target in test [3] is T1, CeDcpS (C. elegans decapping scavenger enzyme). The test is described as follows: HPLC decapping assay with recombinant enzyme, hydrolysis rate V0 at […] substrate. In kind it is biochemical.
For test [4], the target named is T2, hDcpS (human decapping scavenger enzyme). Described as above. The test is classed as biochemical.

We go through two molecules from article PMC6812366 (ACS Omega, 2019).

The structures appear in SMILES notation.

T2 sequence (Q96C86 2-337): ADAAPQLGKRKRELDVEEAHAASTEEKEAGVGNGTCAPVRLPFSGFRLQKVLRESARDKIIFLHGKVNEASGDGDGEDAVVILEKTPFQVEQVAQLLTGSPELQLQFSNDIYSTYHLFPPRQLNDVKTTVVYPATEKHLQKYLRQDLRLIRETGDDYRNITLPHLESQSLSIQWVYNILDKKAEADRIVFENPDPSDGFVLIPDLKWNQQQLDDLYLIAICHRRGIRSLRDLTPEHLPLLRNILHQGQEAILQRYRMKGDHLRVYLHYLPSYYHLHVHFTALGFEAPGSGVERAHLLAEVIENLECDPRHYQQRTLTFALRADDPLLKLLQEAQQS

Regarding `CNc1nc2c(c(=O)[nH]1)[n+](C)cn2[C@@H]1O[C@H](COP(=O)(O)O)[C@@H](O)[C@H]1O` [m2m7GMP], the dissociation constant (Kd) in test [1] was 136 nM; in test [2], 286 nM.
For `C[n+]1cn([C@@H]2O[C@H](COP(=O)(O)OP(=O)(O)OP(=O)(O)OC[C@H]3O[C@@H](n4cnc5c(=O)[nH]c(N)nc54)[C@H](O)[C@@H]3O)[C@@H](O)[C@H]2O)c2nc(N)[nH]c(=O)c21` [m7GpppG, P1-(7-methylguanosin-5′-yl)-P3-guanosin-5′-yl triphosphate], in test [3], the CeDcpS was 1.83 ± 0.21 µM/min. Further, the hDcpS in test [4] came out at 4.33 ± 0.23 µM/min.
